This test has as its target human recombinant GPR65 (Homo sapiens, UniProt Q8IYL9). The test can be described thus: Human GPR65 cAMP HTRF antagonist assay. It counts as cell-based. An excerpt: In one preferred embodiment, the compound prevents the increase in cytoplasmic cAMP levels expected following GPR65 activation at acidic pH. This prevention of cAMP accumulation in turn prevents downstream signalling through ICER, as described above. The “Human GPR65 cyclic adenosine monophosphate (cAMP) Homogeneous Time Resolved Fluorescence (HTRF) antagonist assay”, or simply “cAMP assay”, as described in the accompanying examples, can be used to measure the potency of GPR65 modulators, which is expressed as the concentration of compound required to reduce the increase in cAMP concentration upon GPR65 activation by 50% (i.e. an IC50).
Human GPR65 Cyclic Adenosine Monophosphate (cAMP) Homogeneous Time Resolved Fluorescence (HTRF) Antagonist Assay Procedure
IC50 data was obtained by the following procedure:
1321N1 human astrocytoma cells stably expressing human recombinant GPR65 (1321N1-hrGPR65 cells, EuroscreenFast) were cultured according to the vendor's instructions.
Compounds were tested for their ability to antagonise GPR65, through measuring the concentration of cytoplasmic cAMP following treatment of the cells at a pH of 7.2 to activate GPR65 signalling and addition of the compound to be tested. The extent to which the expected rise in cAMP concentration upon GPR65 activation was suppressed by the added compound is indicative of its potency. The assay was carried out according to EuroscreenFast assay Methodology as follows.
On the day of the assay, test compounds were added to 384-well, low volume, white microtiter plates by acoustic dispensing. KRH buffer (5 mM KCl, 1.25 mM MgSO4, 124 mM NaCl, 25 mM HEPES, 13.3 mM Glucose, 1.25 mM KH2PO4 and 1.45 mM CaCl2) was adjusted to pH 6.5, pH 7.6 and pH 8.4 by adding NaOH. 1321N1-hGPR65 cells were rapidly thawed and diluted in KRH, pH 7.6 prior to centrifugation at 300×g for 5 min and resuspension in assay buffer (KRH, pH 7.6, supplemented with 1 mM 3-isobutyl-1-methylxanthine (IBMX) and 200 μM ethylenediaminetetraacetic acid (EDTA)). Cells were added to assay plates at a density of 2,000 cells per well in a volume of 5 μl. Assay plates were briefly centrifuged at 100×g and then incubated at room temperature for 30 min. Cells were stimulated by the addition of 5 μL KRH, pH 6.5, to achieve an assay pH of 7.2, while control wells received 5 μl KRH, pH 8.4 to achieve an assay pH of 7.9. Assay plates were briefly centrifuged at 100×g and then incubated at room temperature for 30 min.
Accumulation of cAMP was detected by cAMP HTRF kit (Cisbio). d2-labeled cAMP and cryptate-labeled anti-cAMP antibody in Lysis and Detection Buffer (Cisbio) were added to assay plates, and the plates were incubated at room temperature for 1 h. HTRF measurements were performed using a Pherastar FSX instrument. Acceptor and donor emission signals were measured at 665 nm and 620 nm, respectively, and HTRF ratios were calculated as signal665 nm/signal620 nm×10^4. Data were normalised to high and low control values and fitted with 4-parameter logistic regression to determine hGPR65 IC50 values for the test compounds, which are shown in Table 1.
For orientation: In TR-FRET formats the signal depends on donor and acceptor labels being close together.

[1] abbreviates: 1321N1-hrGPR65 cells, cAMP HTRF, assay pH 7.2, read-out: hGPR65 IC50 (Activity of selected compounds according to the invention).

Each structure is given as a SMILES string. Like-named read-outs stand apart in the source and are kept apart here. Where only a bound is given, the exact number is not on record here.

The values that follow come from patent publication US20240368173A1, “TRICYCLIC GPR65 MODULATORS” (PATHIOS THERAPEUTICS LIMITED, priority 2021, published 2024).

As usually defined, the IC50 is the concentration that gives 50% inhibition.

human recombinant GPR65, sequence (Q8IYL9 whole entry): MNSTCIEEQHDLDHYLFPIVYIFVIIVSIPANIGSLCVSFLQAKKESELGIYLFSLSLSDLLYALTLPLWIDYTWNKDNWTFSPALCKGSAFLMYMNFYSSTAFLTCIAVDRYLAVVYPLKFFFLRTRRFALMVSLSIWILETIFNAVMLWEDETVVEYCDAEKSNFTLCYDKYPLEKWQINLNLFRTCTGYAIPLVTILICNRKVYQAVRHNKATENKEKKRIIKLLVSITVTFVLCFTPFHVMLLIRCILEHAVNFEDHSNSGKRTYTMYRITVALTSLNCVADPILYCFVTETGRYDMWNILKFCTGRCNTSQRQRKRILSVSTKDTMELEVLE

Consider `O=C(Nc1cc(Cl)c(C(F)(F)F)cn1)N1C2CCC1c1n[nH]c(=O)cc1C2` (racemic) [Compound 12, (±)-N-(4-Chloro-5-(trifluoromethyl)pyridin-2-yl)-3-oxo-3,5,6,7,8,9-hexahydro-2H-6,9-epiminocyclohepta[c]pyridazine-10-carboxamide], for which, under setting [1], the IC50 fell in the range of 500 to 5000 nM. As for `CC(C)Oc1ccc(NC(=O)N2C3CCC2c2n[nH]c(=O)cc2C3)cc1Cl` (racemic) [Compound 13, (±)-N-(3-Chloro-4-isopropoxyphenyl)-3-oxo-3,5,6,7,8,9-hexahydro-2H-6,9-epiminocyclohepta[c]pyridazine-10-carboxamide], under setting [1], the IC50 was in the range of 500 to 5000 nM. The same measure, in the same setting: then `O=C(Nc1ccc(OC2CCC2)c(Cl)c1)N1C2CCC1c1n[nH]c(=O)cc1C2` (racemic) [Compound 14, (±)-N-(3-Chloro-4-cyclobutoxyphenyl)-3-oxo-3,5,6,7,8,9-hexahydro-2H-6,9-epiminocyclohepta[c]pyridazine-10-carboxamide], with 500 to 5000 nM. With `O=C(Nc1cc(Br)c(Cl)cc1F)N1C2CCC1c1c[nH]c(=O)nc1C2` (racemic) [Compound 15, (±)—N-(5-Bromo-4-chloro-2-fluorophenyl)-2-oxo-3,5,6,7,8,9-hexahydro-2H-5,8-epiminocyclohepta[d]pyrimidine-10-carboxamide], the IC50 is < 500 nM.

As to `O=C(Nc1cc(Cl)c(Br)cc1F)N1C2CCC1c1c[nH]c(=O)nc1C2` (racemic) [Compound 16, (±)-N-(4-bromo-5-chloro-2-fluorophenyl)-2-oxo-3,5,6,7,8,9-hexahydro-2H-5,8-epiminocyclohepta[d]pyrimidine-10-carboxamide], the IC50 was < 500 nM.

As to `O=C(Nc1cc(Br)c(C(F)(F)F)cc1F)N1C2CCC1c1c[nH]c(=O)nc1C2` (racemic) [Compound 17, (±)-N-(5-bromo-2-fluoro-4-(trifluoromethyl)phenyl)-2-oxo-3,5,6,7,8,9-hexahydro-2H-5,8-epiminocyclohepta[d]pyrimidine-10-carboxamide], the IC50 was < 500 nM.

`CO[C@H]1C[C@@H](Oc2ccc(NC(=O)N3C4CCC3c3n[nH]c(=O)cc3C4)cc2Cl)C1` (mixture of isomers) [Compound 36, (±)-N-(3-Chloro-4-((1s,3S)-3-methoxycyclobutoxy)phenyl)-3-oxo-3,5,6,7,8,9-hexahydro-2H-6,9-epiminocyclohepta[c]pyridazine-10-carboxamide]: the IC50 under setting [1] is > 5000 nM. Turning to `N#Cc1cnc(NC(=O)N2C3CCC2c2n[nH]c(=O)cc2C3)cc1Cl` (racemic) [Compound 43, (±)-N-(4-Chloro-5-cyanopyridin-2-yl)-3-oxo-3,5,6,7,8,9-hexahydro-2H-6,9-epiminocyclohepta[c]pyridazine-10-carboxamide], the IC50 under setting [1] lay in the range of 500 to 5000 nM. Regarding `O=C(Nc1cc(C(F)(F)F)on1)N1C2CCC1c1n[nH]c(=O)cc1C2` (racemic) [Compound 44, (±)-3-Oxo-N-(5-(trifluoromethyl)isoxazole-3-yl)-3,5,6,7,8,9-hexahydro-2H-6,9-epiminocyclohepta[c]pyridazine-10-carboxamide], the IC50 is < 500 nM. On to `O=C(Nc1cc(Cl)c(OC2CCC2)cc1F)N1C2CCC1c1n[nH]c(=O)cc1C2` (racemic) [Compound 51, (±)-N-(5-Chloro-4-cyclobutoxy-2-fluorophenyl)-3-oxo-3,5,6,7,8,9-hexahydro-2H-6,9-epiminocyclohepta[c]pyridazine-10-carboxamide], for which the IC50 was < 500 nM. The same measure, in the same setting: the result for `O=C(Nc1cc(Cl)c(F)cc1F)N1C2CCC1c1n[nH]c(=O)cc1C2` (racemic) [Compound 52, (±)-N-(5-Chloro-2,4-difluorophenyl)-3-oxo-3,5,6,7,8,9-hexahydro-2H-6,9-epiminocyclohepta[c]pyridazine-10-carboxamide] reads < 500 nM. Regarding `N#Cc1cc(F)c(NC(=O)N2C3CCC2c2n[nH]c(=O)cc2C3)cc1Cl` (racemic) [Compound 53, (±)-N-(5-Chloro-4-cyano-2-fluorophenyl)-3-oxo-3,5,6,7,8,9-hexahydro-2H-6,9-epiminocyclohepta[c]pyridazine-10-carboxamide], the IC50 under setting [1] was 500 to 5000 nM. For `O=C(Nc1cc(Cl)c(I)cc1F)N1C2CCC1c1n[nH]c(=O)cc1C2` (racemic) [Compound 74, (±)-N-(5-Chloro-2-fluoro-4-iodophenyl)-3-oxo-3,5,6,7,8,9-hexahydro-2H-6,9-epiminocyclohepta[c]pyridazine-10-carboxamide], the concentration for half-maximal inhibition (IC50) was < 500 nM.

Consider `O=C(Nc1ccc(Cl)c(Cl)c1)N1C2CCC1c1n[nH]c(=O)cc1C2` (racemic) [Compound 75, (±)-N-(3,4-Dichlorophenyl)-3-oxo-3,5,6,7,8,9-hexahydro-2H-6,9-epiminocyclohepta[c]pyridazine-10-carboxamide], for which the IC50 was < 500 nM. Still for that read-out and setting: then `O=C(Nc1ccc(C(F)(F)F)c(Cl)c1)N1C2CCC1c1n[nH]c(=O)cc1C2` (racemic) [Compound 76, (±)-N-(3-Chloro-4-(trifluoromethyl)phenyl)-3-oxo-3,5,6,7,8,9-hexahydro-2H-6,9-epiminocyclohepta[c]pyridazine-10-carboxamide], with < 500 nM.

As to `Cn1nc2c(cc1=O)CC1CCC2N1C(=O)Nc1cc(Cl)c(Cl)cc1F` (racemic) [Compound 83, (±)-N-(4,5-Dichloro-2-fluorophenyl)-2-methyl-3-oxo-3,5,6,7,8,9-hexahydro-2H-6,9-epiminocyclohepta[c]pyridazine-10-carboxamide], the IC50 under setting [1] lay within 500 to 5000 nM. In the case of `O=C(Nc1cc(Cl)c(Cl)cc1F)N1C2CCC1c1ccnnc1C2` (racemic) [Compound 84, (±)-N-(4,5-Dichloro-2-fluorophenyl)-6,7,8,9-tetrahydro-5H-5,8-epiminocyclohepta[c]pyridazine-10-carboxamide], the IC50 is < 500 nM. In the case of `O=C(Nc1cc(Cl)c(Cl)cc1F)N1C2CCC1c1ncnc(F)c1C2` (racemic) [Compound 87, (±)—N-(4,5-Dichloro-2-fluorophenyl)-4-fluoro-6,7,8,9-tetrahydro-5H-6,9-epiminocyclohepta[d]pyrimidine-10-carboxamide], the IC50 is < 500 nM.

Regarding `C=C1c2c(ccnc2F)C2CCC1N2C(=O)Nc1cc(Cl)c(Cl)cc1F` (racemic) [Compound 154, (±)—N-(4,5-Dichloro-2-fluorophenyl)-1-fluoro-9-methylene-6,7,8,9-tetrahydro-5H-5,8-epiminocyclohepta[c]pyridine-10-carboxamide], the IC50 is < 500 nM. In the case of `O=C1c2c(ccnc2F)C2CCC1N2C(=O)Nc1cc(Cl)c(Cl)cc1F` (racemic) [Compound 155, (±)—N-(4,5-Dichloro-2-fluorophenyl)-1-fluoro-9-oxo-6,7,8,9-tetrahydro-5H-5,8-epiminocyclohepta[c]pyridine-10-carboxamide], the concentration for half-maximal inhibition (IC50) is < 500 nM. `O=C(Nc1cc(Cl)c(C(F)(F)F)cc1F)N1C2CCC1[C@@H](O)c1c2ccnc1F` (mixture of isomers) [Compound 156, (±)-(9S)—N-(5-chloro-2-fluoro-4-(trifluoromethyl)phenyl)-1-fluoro-9-hydroxy-6,7,8,9-tetrahydro-5H-5,8-epiminocyclohepta[c]pyridine-10-carboxamide]: the IC50 under setting [1] is 500 to 5000 nM. As to `O=C(Nc1cc(Cl)c(C(F)(F)F)cc1F)N1C2CCC1[C@H](F)c1c2ccnc1F` (mixture of isomers) [Compound 157, (±)-(9R)—N-(5-Chloro-2-fluoro-4-(trifluoromethyl)phenyl)-1,9-difluoro-6,7,8,9-tetrahydro-5H-5,8-epiminocyclohepta[c]pyridine-10-carboxamide], the IC50 was < 500 nM.
